System: not listed separately
Assay: Metabolic stability in human liver microsomes
Settings: human liver microsomes 0.5 mg/mL, 1 μM test compound (testosterone 5 μM), 10 min
Procedure: Additionally, several of the N77A7 analogs were subjected to the test for the metabolic stability in human and mouse liver microsomes. Briefly, 1 μM of test compound was incubated with microsomal protein (human liver microsomes: 0.5 mg/mL; mouse liver microsomes 0.5 mg/mL) and buffer (100 mM potassium phosphate, pH 7.4, 5 mM magnesium chloride). The positive control was 5 μM testosterone. The reaction was equilibrated at 37 C in a shaking water bath for 3 to 5 minutes. After equilibration, an aliquot was removed and combined with 50/50 acetonitrile/water containing 0.1% formic acid and internal standard to terminate the reaction. 1 mM NADPH was immediately added and the tube was returned to the water bath. Five sample time points were taken (0, 10, 20, 30, and 60 minutes). Aliquots were removed and combined with 50/50 acetonitrile/water containing 0.1% formic acid and internal standard to terminate the reaction. The samples were mixed for 10 minutes and centrifuged. The supernatant from each sample was diluted (if necessary) and then transferred to vials for analysis by LC-MS/MS for the test compound and internal standard without calibration standards. The percent remaining at each time point was determined by the test compound's peak area response ratio versus the 0 minute sample.

For `C[C@]12CC[C@H]3[C@@H](CCC4=CC(=O)CC[C@@]43C)[C@@H]1CC[C@@H]2O` [Testosterone, testosterone, reference compound], the “Percent Remaining 10 min” value was 78%.

Same assay, conditions: human liver microsomes 0.5 mg/mL, 1 μM test compound (testosterone 5 μM), 30 min

In the case of `C[C@]12CC[C@H]3[C@@H](CCC4=CC(=O)CC[C@@]43C)[C@@H]1CC[C@@H]2O` [Testosterone, testosterone, reference compound], the “Percent Remaining 30 min” value is reported as 40%.

Same assay, conditions: human liver microsomes 0.5 mg/mL, 1 μM test compound (testosterone 5 μM), 60 min

For `C[C@]12CC[C@H]3[C@@H](CCC4=CC(=O)CC[C@@]43C)[C@@H]1CC[C@@H]2O` [Testosterone, testosterone, reference compound], the “Percent Remaining 60 min” value was 19%.

Same assay, conditions: human liver microsomes 0.5 mg/mL, 1 μM test compound (testosterone positive control 5 μM), 0 min

With `C[C@]12CC[C@H]3[C@@H](CCC4=CC(=O)CC[C@@]43C)[C@@H]1CC[C@@H]2O` [Testosterone, testosterone, reference compound] the “Percent Remaining 0 min” value was 100%.

Same assay, conditions: human, microsomes, 0 h, 1 μM, pH 7.4

Point of comparison: `CCN(CC)c1ccc(/C=N/NC(=O)Cn2c3ccccc3c(=O)c3ccccc32)c(O)c1` [Compound 2], “Percent Remaining 0 min” value 100%. Against it:
- CCN(CC)c1ccc(/C=N/NC(=O)c2cc(C)n[nH]2)c(O)c1 [Compound 3] — the same, 100%
- CCN(CC)c1ccc(/C=N\NC(=O)c2nnn(-c3nonc3N)c2CN2CCCCCC2)c(O)c1 [Compound 4] — the same, 100%

Same assay, conditions: human, microsomes, 1 μM, pH 7.4

With `CCN(CC)c1ccc(/C=N/NC(=O)Cn2c3ccccc3c(=O)c3ccccc32)c(O)c1` [Compound 2] the Half-life was >60 min.

Same assay, conditions: human, microsomes, 10 min, 1 μM, pH 7.4

Point of comparison: `CCN(CC)c1ccc(/C=N\NC(=O)c2nnn(-c3nonc3N)c2CN2CCCCCC2)c(O)c1` [Compound 4], “Percent Remaining 10 min” value 56%. Against it:
- CCN(CC)c1ccc(/C=N/NC(=O)Cn2c3ccccc3c(=O)c3ccccc32)c(O)c1 [Compound 2] — higher, 119%
- CCN(CC)c1ccc(/C=N/NC(=O)c2cc(C)n[nH]2)c(O)c1 [Compound 3] — higher, 93%

Same assay, conditions: human, microsomes, 20 min, 1 μM, pH 7.4

Point of comparison: `CCN(CC)c1ccc(/C=N/NC(=O)Cn2c3ccccc3c(=O)c3ccccc32)c(O)c1` [Compound 2], “Percent Remaining 20 min” value 91%. Against it:
- CCN(CC)c1ccc(/C=N/NC(=O)c2cc(C)n[nH]2)c(O)c1 [Compound 3] — lower, 66%
- CCN(CC)c1ccc(/C=N\NC(=O)c2nnn(-c3nonc3N)c2CN2CCCCCC2)c(O)c1 [Compound 4] — lower, 37%

Same assay, conditions: human, microsomes, 0.5 h, 1 μM, pH 7.4

Point of comparison: `CCN(CC)c1ccc(/C=N/NC(=O)c2cc(C)n[nH]2)c(O)c1` [Compound 3], “Percent Remaining 30 min” value 49%. Against it:
- CCN(CC)c1ccc(/C=N/NC(=O)Cn2c3ccccc3c(=O)c3ccccc32)c(O)c1 [Compound 2] — higher, 83%
- CCN(CC)c1ccc(/C=N\NC(=O)c2nnn(-c3nonc3N)c2CN2CCCCCC2)c(O)c1 [Compound 4] — lower, 28%

Same assay, conditions: human, microsomes, 1 h, 1 μM, pH 7.4

Point of comparison: `CCN(CC)c1ccc(/C=N\NC(=O)c2nnn(-c3nonc3N)c2CN2CCCCCC2)c(O)c1` [Compound 4], “Percent Remaining 60 min” value 20%. Against it:
- CCN(CC)c1ccc(/C=N/NC(=O)Cn2c3ccccc3c(=O)c3ccccc32)c(O)c1 [Compound 2] — higher, 74%
- CCN(CC)c1ccc(/C=N/NC(=O)c2cc(C)n[nH]2)c(O)c1 [Compound 3] — higher, 24%

Same assay, conditions: human, microsomes, pH 7.4

Point of comparison: `CCN(CC)c1ccc(/C=N\NC(=O)c2nnn(-c3nonc3N)c2CN2CCCCCC2)c(O)c1` [Compound 4], half-life at 1 µM 16 min. Against it:
- CCN(CC)c1ccc(/C=N/NC(=O)Cn2c3ccccc3c(=O)c3ccccc32)c(O)c1 [Compound 2] — higher, > 60 min
- CCN(CC)c1ccc(/C=N/NC(=O)c2cc(C)n[nH]2)c(O)c1 [Compound 3] — 1.8-fold higher, 29.5 min
- C[C@]12CC[C@H]3[C@@H](CCC4=CC(=O)CC[C@@]43C)[C@@H]1CC[C@@H]2O [Testosterone, testosterone, reference compound] — within 1.5-fold, 23.9 min

Point of comparison: `CCN(CC)c1ccc(/C=N/NC(=O)c2cc(C)n[nH]2)c(O)c1` [Compound 3], microsomal CLint at 1 μM 47 µL/min/mg. Against it:
- CCN(CC)c1ccc(/C=N/NC(=O)Cn2c3ccccc3c(=O)c3ccccc32)c(O)c1 [Compound 2] — lower, < 20 µL/min/mg
- CCN(CC)c1ccc(/C=N\NC(=O)c2nnn(-c3nonc3N)c2CN2CCCCCC2)c(O)c1 [Compound 4] — 1.9-fold higher, 87 µL/min/mg

Same assay, conditions: mouse liver microsomes 0.5 mg/mL, 1 μM test compound (testosterone 5 μM), 10 min

For `C[C@]12CC[C@H]3[C@@H](CCC4=CC(=O)CC[C@@]43C)[C@@H]1CC[C@@H]2O` [Testosterone, testosterone, reference compound], the “Percent Remaining 10 min” value was 19%.

Same assay, conditions: mouse liver microsomes 0.5 mg/mL, 1 μM test compound (testosterone 5 μM), 30 min

In the case of `C[C@]12CC[C@H]3[C@@H](CCC4=CC(=O)CC[C@@]43C)[C@@H]1CC[C@@H]2O` [Testosterone, testosterone, reference compound], the “Percent Remaining 30 min” value is reported as <1.0%.

Same assay, conditions: mouse liver microsomes 0.5 mg/mL, 1 μM test compound (testosterone 5 μM), 60 min

For `C[C@]12CC[C@H]3[C@@H](CCC4=CC(=O)CC[C@@]43C)[C@@H]1CC[C@@H]2O` [Testosterone, testosterone, reference compound], the “Percent Remaining 60 min” value was <1.0%.

Same assay, conditions: mouse liver microsomes 0.5 mg/mL, 1 μM test compound (testosterone positive control 5 μM), 0 min

For `C[C@]12CC[C@H]3[C@@H](CCC4=CC(=O)CC[C@@]43C)[C@@H]1CC[C@@H]2O` [Testosterone, testosterone, reference compound], the “Percent Remaining 0 min” value was 100%.

Same assay, conditions: mouse, microsomes, 0 h, 1 μM, pH 7.4

Point of comparison: `CCN(CC)c1ccc(/C=N\NC(=O)c2nnn(-c3nonc3N)c2CN2CCCCCC2)c(O)c1` [Compound 4], “Percent Remaining 0 min” value 100%. Against it:
- CCN(CC)c1ccc(/C=N/NC(=O)Cn2c3ccccc3c(=O)c3ccccc32)c(O)c1 [Compound 2] — the same, 100%
- CCN(CC)c1ccc(/C=N/NC(=O)c2cc(C)n[nH]2)c(O)c1 [Compound 3] — the same, 100%

Same assay, conditions: mouse, microsomes, 10 min, 1 μM, pH 7.4

Point of comparison: `CCN(CC)c1ccc(/C=N\NC(=O)c2nnn(-c3nonc3N)c2CN2CCCCCC2)c(O)c1` [Compound 4], “Percent Remaining 10 min” value 3.1%. Against it:
- CCN(CC)c1ccc(/C=N/NC(=O)Cn2c3ccccc3c(=O)c3ccccc32)c(O)c1 [Compound 2] — higher, 45%
- CCN(CC)c1ccc(/C=N/NC(=O)c2cc(C)n[nH]2)c(O)c1 [Compound 3] — higher, 39%

Same assay, conditions: mouse, microsomes, 20 min, 1 μM, pH 7.4

Point of comparison: `CCN(CC)c1ccc(/C=N/NC(=O)c2cc(C)n[nH]2)c(O)c1` [Compound 3], “Percent Remaining 20 min” value 12%. Against it:
- CCN(CC)c1ccc(/C=N/NC(=O)Cn2c3ccccc3c(=O)c3ccccc32)c(O)c1 [Compound 2] — higher, 32%
- CCN(CC)c1ccc(/C=N\NC(=O)c2nnn(-c3nonc3N)c2CN2CCCCCC2)c(O)c1 [Compound 4] — lower, 1.8%

Same assay, conditions: mouse, microsomes, 0.5 h, 1 μM, pH 7.4

Point of comparison: `CCN(CC)c1ccc(/C=N\NC(=O)c2nnn(-c3nonc3N)c2CN2CCCCCC2)c(O)c1` [Compound 4], “Percent Remaining 30 min” value 1.3%. Against it:
- CCN(CC)c1ccc(/C=N/NC(=O)Cn2c3ccccc3c(=O)c3ccccc32)c(O)c1 [Compound 2] — higher, 26%
- CCN(CC)c1ccc(/C=N/NC(=O)c2cc(C)n[nH]2)c(O)c1 [Compound 3] — higher, 3.7%

Same assay, conditions: mouse, microsomes, 1 h, 1 μM, pH 7.4

For `CCN(CC)c1ccc(/C=N/NC(=O)Cn2c3ccccc3c(=O)c3ccccc32)c(O)c1` [Compound 2], the “Percent Remaining 60 min” value was 21%.

In the case of `CCN(CC)c1ccc(/C=N/NC(=O)c2cc(C)n[nH]2)c(O)c1` [Compound 3], the “Percent Remaining 60 min” value is reported as <1.0%.
With `CCN(CC)c1ccc(/C=N\NC(=O)c2nnn(-c3nonc3N)c2CN2CCCCCC2)c(O)c1` [Compound 4] the “Percent Remaining 60 min” value was <1.0%.

Same assay, conditions: mouse, microsomes, pH 7.4

Point of comparison: `CCN(CC)c1ccc(/C=N/NC(=O)c2cc(C)n[nH]2)c(O)c1` [Compound 3], half-life at 1 µM 7 min. Against it:
- CCN(CC)c1ccc(/C=N/NC(=O)Cn2c3ccccc3c(=O)c3ccccc32)c(O)c1 [Compound 2] — 1.9-fold higher, 13.5 min
- CCN(CC)c1ccc(/C=N\NC(=O)c2nnn(-c3nonc3N)c2CN2CCCCCC2)c(O)c1 [Compound 4] — 3.5-fold lower, 2 min
- C[C@]12CC[C@H]3[C@@H](CCC4=CC(=O)CC[C@@]43C)[C@@H]1CC[C@@H]2O [Testosterone, testosterone, reference compound] — 1.7-fold lower, 4.2 min

Point of comparison: `CCN(CC)c1ccc(/C=N\NC(=O)c2nnn(-c3nonc3N)c2CN2CCCCCC2)c(O)c1` [Compound 4], microsomal CLint at 1 μM 690 µL/min/mg. Against it:
- CCN(CC)c1ccc(/C=N/NC(=O)Cn2c3ccccc3c(=O)c3ccccc32)c(O)c1 [Compound 2] — 6.9-fold lower, 100 µL/min/mg
- CCN(CC)c1ccc(/C=N/NC(=O)c2cc(C)n[nH]2)c(O)c1 [Compound 3] — 3.5-fold lower, 200 µL/min/mg

System: SK-Mel-19
Assay: Suppression of proliferation / senescence induction in melanoma line
Assay type: cell-based
Settings: Homo sapiens, SK-MEL19
From the text: (§1) 260 analogs of N77A7 were selected from several commercially available libraries of small molecules based on the structural similarities with N77A7. The compounds were screened for the ability to permanently suppress proliferation and induce senescence in cells from melanoma lines SK-Mel-19 and SK-Mel-103. Based on the above-described screening procedure, seven small molecules were identified as having IC50 values lower than that of N77A7.

Point of comparison: `CCN(CC)c1ccc(/C=N/NC(=O)c2cc(C)n[nH]2)c(O)c1` [Compound 3], IC50 500 nM. Against it:
- Cc1ccc(/C=N/NC(=O)c2cc(-c3ccccc3)n[nH]2)c(O)c1 [Compound 1] — 8-fold higher, 4000 nM
- CCN(CC)c1ccc(/C=N/NC(=O)Cn2c3ccccc3c(=O)c3ccccc32)c(O)c1 [Compound 2] — within 1.5-fold, 400 nM
- CCN(CC)c1ccc(/C=N\NC(=O)c2nnn(-c3nonc3N)c2CN2CCCCCC2)c(O)c1 [Compound 4] — 3.3-fold lower, 150 nM

System: SK-Mel-103
Assay: as above
Assay type: cell-based
Settings: Homo sapiens
From the text: as §1

Point of comparison: `CCN(CC)c1ccc(/C=N/NC(=O)Cn2c3ccccc3c(=O)c3ccccc32)c(O)c1` [Compound 2], IC50 400 nM. Against it:
- Cc1ccc(/C=N/NC(=O)c2cc(-c3ccccc3)n[nH]2)c(O)c1 [Compound 1] — 6.2-fold higher, 2500 nM
- CCN(CC)c1ccc(/C=N/NC(=O)c2cc(C)n[nH]2)c(O)c1 [Compound 3] — within 1.5-fold, 500 nM
- CCN(CC)c1ccc(/C=N\NC(=O)c2nnn(-c3nonc3N)c2CN2CCCCCC2)c(O)c1 [Compound 4] — 4-fold lower, 100 nM
